According to ChEMBL document CHEMBL4507319 (2021):

Columns and labels:
Conditions in all cases: Compound concentration 1000.0 nM
[1] = target: T1, Aurora kinase A (Homo sapiens) (UniProt O14965)
T1 sequence (whole entry): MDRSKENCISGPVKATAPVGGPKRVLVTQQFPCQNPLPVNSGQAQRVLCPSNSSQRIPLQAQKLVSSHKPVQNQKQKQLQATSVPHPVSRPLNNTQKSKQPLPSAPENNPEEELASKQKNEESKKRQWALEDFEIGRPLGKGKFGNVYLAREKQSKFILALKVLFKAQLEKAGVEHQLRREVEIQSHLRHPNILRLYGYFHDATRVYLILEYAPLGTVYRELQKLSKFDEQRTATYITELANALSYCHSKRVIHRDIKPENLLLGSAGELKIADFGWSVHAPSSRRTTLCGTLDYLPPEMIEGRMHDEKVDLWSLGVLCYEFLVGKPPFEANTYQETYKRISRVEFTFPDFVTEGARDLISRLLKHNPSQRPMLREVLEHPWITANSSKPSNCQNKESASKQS

[2] = target: Bone morphogenetic protein receptor type-1B (Homo sapiens) (UniProt O00238)
Sequence of Bone morphogenetic protein receptor type-1B (Homo sapiens) (O00238 whole entry): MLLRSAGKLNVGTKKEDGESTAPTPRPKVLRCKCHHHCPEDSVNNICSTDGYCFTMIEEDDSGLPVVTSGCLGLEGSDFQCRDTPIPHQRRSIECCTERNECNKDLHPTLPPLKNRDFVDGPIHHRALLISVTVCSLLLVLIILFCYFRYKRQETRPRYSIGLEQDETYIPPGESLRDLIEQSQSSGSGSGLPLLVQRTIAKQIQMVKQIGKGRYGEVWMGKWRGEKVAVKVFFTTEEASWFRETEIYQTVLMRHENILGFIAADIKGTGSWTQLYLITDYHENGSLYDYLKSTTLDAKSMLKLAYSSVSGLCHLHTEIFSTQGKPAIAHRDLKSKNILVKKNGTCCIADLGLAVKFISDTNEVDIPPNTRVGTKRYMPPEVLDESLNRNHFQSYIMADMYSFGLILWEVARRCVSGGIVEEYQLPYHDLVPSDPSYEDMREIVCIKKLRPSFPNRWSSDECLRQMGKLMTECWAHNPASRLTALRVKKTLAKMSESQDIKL

[3] = tested on: Receptor-type tyrosine-protein kinase FLT3 (Homo sapiens), P36888 [UNDEFINED MUTATION]
[4] = target: Mitogen-activated protein kinase kinase kinase kinase 5 (Homo sapiens) (UniProt Q9Y4K4)
Sequence of Mitogen-activated protein kinase kinase kinase kinase 5 (Homo sapiens) (Q9Y4K4 whole entry, looked up): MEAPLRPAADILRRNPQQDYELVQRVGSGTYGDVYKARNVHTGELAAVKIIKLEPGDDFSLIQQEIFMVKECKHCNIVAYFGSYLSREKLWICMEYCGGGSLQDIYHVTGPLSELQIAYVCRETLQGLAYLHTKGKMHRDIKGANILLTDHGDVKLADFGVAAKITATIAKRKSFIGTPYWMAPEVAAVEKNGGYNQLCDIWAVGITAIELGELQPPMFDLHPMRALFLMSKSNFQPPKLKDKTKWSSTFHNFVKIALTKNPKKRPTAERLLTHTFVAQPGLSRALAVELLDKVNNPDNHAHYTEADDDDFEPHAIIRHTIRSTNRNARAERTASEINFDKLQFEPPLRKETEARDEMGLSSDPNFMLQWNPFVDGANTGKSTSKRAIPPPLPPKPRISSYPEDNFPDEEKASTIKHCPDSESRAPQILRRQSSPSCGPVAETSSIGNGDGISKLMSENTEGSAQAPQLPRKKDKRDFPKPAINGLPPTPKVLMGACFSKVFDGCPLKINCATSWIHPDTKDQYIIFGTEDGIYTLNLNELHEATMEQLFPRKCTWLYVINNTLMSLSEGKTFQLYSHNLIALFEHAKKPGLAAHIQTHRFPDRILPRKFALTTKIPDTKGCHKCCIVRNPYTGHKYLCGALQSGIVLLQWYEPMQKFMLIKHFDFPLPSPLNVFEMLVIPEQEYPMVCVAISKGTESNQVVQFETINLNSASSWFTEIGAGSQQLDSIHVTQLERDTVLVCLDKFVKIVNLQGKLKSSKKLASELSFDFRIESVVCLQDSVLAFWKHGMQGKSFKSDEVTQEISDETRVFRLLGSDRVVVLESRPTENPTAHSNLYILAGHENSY

[5] = target: Cyclin-dependent kinase 16 (Homo sapiens) (UniProt Q00536)
Sequence of Cyclin-dependent kinase 16 (Homo sapiens) (Q00536 whole entry, the tested form may be a part): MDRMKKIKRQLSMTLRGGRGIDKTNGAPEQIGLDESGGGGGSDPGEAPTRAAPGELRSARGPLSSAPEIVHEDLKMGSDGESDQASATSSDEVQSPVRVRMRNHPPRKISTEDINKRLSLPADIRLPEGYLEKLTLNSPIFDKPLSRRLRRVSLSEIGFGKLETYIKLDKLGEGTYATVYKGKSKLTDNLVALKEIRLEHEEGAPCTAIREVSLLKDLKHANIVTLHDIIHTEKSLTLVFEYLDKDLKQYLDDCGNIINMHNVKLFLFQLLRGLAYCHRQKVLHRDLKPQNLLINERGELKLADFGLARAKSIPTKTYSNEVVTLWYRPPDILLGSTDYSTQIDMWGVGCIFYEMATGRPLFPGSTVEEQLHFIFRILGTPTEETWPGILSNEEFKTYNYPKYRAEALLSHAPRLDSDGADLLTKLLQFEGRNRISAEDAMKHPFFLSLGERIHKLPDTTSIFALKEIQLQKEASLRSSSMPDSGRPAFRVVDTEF

[6] = target: Phosphatidylinositol 4-phosphate 3-kinase C2 domain-containing subunit beta (Homo sapiens) (UniProt O00750)
[7] = target: Phosphatidylinositol 4,5-bisphosphate 3-kinase catalytic subunit gamma isoform (Homo sapiens) (UniProt P48736)
Sequence of Phosphatidylinositol 4,5-bisphosphate 3-kinase catalytic subunit gamma isoform (Homo sapiens) (P48736 whole entry, looked up, canonical isoform): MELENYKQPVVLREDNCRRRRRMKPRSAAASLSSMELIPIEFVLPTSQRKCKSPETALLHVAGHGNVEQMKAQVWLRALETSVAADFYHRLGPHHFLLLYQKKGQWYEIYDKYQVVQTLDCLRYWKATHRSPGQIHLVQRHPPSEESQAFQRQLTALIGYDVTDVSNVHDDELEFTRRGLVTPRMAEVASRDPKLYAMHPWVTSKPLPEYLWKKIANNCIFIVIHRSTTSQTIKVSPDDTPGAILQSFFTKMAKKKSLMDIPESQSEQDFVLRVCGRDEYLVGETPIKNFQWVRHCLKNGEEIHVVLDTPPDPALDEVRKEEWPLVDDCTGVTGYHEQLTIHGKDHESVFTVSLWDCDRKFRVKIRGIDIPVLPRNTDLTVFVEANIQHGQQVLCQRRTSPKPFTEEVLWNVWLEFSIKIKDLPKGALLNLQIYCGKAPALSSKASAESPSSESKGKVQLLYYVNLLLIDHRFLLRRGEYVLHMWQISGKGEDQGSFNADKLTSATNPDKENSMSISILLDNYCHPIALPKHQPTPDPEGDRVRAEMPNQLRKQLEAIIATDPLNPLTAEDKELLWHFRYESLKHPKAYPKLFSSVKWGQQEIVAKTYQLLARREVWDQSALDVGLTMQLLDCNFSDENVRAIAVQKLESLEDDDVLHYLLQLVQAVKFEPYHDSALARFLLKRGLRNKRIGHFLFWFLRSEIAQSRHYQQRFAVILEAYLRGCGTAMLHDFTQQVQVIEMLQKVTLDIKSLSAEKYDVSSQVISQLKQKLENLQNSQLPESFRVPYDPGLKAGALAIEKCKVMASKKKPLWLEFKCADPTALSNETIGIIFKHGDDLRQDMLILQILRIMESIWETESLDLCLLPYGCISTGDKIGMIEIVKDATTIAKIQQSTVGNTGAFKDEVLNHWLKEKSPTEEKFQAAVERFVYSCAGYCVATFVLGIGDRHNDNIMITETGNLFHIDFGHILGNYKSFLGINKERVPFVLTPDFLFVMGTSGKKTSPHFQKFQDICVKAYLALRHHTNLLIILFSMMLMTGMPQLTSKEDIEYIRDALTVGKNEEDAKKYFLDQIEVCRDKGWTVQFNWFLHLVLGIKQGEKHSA

[8] = target: cAMP-dependent protein kinase catalytic subunit beta (Homo sapiens) (UniProt P22694)
[9] = target: Protein kinase C eta type (Homo sapiens) (UniProt P24723)
Sequence of Protein kinase C eta type (Homo sapiens) (P24723 whole entry): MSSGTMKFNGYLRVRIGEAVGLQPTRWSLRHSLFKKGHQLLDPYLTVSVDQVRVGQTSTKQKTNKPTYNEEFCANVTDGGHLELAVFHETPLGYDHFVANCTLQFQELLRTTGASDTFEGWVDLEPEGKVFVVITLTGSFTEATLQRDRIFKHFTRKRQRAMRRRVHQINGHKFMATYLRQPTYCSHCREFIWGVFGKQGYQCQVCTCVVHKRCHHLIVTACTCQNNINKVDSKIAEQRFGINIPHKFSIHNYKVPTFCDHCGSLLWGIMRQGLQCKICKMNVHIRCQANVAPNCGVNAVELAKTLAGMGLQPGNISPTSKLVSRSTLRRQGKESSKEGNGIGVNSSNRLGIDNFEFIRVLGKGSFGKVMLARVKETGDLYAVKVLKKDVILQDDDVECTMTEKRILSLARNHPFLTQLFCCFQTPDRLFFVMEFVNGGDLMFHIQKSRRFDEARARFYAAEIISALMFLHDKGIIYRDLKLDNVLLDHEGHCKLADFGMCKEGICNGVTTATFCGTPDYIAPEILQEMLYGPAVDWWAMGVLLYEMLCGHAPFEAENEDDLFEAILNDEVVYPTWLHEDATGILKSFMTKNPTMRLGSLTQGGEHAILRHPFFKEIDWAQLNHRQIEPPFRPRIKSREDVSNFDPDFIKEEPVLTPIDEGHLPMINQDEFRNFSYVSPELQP

[10] = target: T2, cGMP-dependent protein kinase 2 (Homo sapiens) (UniProt Q13237)
T2 sequence (whole entry): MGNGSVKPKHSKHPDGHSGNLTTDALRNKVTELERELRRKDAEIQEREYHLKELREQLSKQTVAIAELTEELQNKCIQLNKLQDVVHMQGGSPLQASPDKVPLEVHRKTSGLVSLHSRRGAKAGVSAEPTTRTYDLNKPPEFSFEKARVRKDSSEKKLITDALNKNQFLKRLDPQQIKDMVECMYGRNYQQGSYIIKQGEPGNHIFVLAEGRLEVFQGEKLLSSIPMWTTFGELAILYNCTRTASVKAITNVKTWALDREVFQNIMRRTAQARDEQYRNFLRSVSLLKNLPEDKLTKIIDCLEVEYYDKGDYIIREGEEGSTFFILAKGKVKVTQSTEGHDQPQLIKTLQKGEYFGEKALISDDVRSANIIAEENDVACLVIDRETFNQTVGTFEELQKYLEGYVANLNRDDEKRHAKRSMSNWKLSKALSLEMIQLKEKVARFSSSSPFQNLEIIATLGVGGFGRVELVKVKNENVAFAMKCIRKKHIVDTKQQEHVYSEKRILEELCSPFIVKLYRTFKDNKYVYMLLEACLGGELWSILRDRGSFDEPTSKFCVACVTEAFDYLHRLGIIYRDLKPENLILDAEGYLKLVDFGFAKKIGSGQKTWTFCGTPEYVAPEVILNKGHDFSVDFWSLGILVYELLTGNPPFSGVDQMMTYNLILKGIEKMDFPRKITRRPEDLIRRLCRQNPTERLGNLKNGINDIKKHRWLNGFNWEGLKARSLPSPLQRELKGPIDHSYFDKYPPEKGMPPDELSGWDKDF

[11] = target: Interferon-induced, double-stranded RNA-activated protein kinase (Homo sapiens) (UniProt P19525)
Sequence of Interferon-induced, double-stranded RNA-activated protein kinase (Homo sapiens) (P19525 whole entry): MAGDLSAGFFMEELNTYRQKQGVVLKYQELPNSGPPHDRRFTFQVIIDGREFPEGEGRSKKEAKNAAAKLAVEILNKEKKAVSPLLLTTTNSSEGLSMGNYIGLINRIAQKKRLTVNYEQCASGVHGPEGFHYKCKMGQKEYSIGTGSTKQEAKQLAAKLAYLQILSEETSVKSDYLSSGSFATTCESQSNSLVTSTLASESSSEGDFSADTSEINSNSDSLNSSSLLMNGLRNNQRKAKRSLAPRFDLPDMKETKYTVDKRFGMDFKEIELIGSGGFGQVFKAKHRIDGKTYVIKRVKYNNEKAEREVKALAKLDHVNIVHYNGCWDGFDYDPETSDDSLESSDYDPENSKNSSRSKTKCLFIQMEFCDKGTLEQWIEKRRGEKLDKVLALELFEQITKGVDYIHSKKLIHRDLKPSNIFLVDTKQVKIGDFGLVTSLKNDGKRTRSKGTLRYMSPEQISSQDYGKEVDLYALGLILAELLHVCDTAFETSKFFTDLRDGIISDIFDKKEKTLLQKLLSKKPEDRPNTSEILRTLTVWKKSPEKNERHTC

[12] = target: Serine/threonine-protein kinase RIO2 (Homo sapiens) (UniProt Q9BVS4)
Sequence of Serine/threonine-protein kinase RIO2 (Homo sapiens) (Q9BVS4 whole entry, looked up): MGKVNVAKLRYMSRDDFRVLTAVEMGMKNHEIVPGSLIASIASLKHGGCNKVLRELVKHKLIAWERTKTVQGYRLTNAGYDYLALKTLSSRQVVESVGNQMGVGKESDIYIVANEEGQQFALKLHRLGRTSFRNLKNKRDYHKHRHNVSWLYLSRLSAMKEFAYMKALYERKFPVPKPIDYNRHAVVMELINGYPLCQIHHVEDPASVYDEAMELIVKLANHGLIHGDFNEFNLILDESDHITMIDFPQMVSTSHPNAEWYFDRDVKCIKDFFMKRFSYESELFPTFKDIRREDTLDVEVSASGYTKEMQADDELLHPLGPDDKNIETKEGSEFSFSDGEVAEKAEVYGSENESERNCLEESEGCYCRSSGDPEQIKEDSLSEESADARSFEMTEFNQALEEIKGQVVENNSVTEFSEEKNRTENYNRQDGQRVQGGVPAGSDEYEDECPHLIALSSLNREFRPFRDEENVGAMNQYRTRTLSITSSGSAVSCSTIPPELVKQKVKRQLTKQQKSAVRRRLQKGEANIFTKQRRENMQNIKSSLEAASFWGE

[13] = target: T3, Mitogen-activated protein kinase kinase kinase 7 (Homo sapiens) (UniProt O43318)
T3 sequence (whole entry): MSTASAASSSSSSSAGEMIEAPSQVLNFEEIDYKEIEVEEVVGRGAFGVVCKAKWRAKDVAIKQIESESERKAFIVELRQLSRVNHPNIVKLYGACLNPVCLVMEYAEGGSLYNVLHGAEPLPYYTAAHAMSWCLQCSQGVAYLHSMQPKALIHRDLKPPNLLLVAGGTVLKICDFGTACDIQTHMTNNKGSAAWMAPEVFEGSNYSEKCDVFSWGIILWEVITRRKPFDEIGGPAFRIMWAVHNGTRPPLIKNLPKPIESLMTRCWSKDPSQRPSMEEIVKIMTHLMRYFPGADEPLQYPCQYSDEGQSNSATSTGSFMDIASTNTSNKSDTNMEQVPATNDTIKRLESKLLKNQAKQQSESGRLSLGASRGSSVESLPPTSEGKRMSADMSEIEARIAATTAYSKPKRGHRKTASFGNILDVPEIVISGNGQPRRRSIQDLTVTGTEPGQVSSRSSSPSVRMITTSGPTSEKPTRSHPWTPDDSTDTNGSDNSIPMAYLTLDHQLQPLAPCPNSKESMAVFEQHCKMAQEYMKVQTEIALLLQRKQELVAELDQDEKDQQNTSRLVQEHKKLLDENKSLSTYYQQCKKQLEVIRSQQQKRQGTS

Structure (SMILES) | residual activity [1] [%] | residual activity [2] [%] | residual activity [3] [%] | residual activity [4] [%] | residual activity [5] [%] | residual activity [6] [%] | residual activity [7] [%] | residual activity [8] [%] | residual activity [9] [%] | residual activity [10] [%] | residual activity [11] [%] | residual activity [12] [%] | residual activity [13] [%]
CC1=C(C#N)C(c2ccc3c(c2)c(NC(=O)c2ccccc2C)nn3C)C(C#N)=C(C)N1 [BAY-974] | 61 | 91 | 76 | 100 | 93 | 76 | 84 | 100 | 94 | 72 | 100 | 65 | 74
CCc1ccccc1C(=O)Nc1n[nH]c2c(C)c(F)c(C3C(C#N)=C(C)N(C)C(C)=C3C#N)cc12 [BAY-3827] | 51 | 96 | 12 | 100 | 100 | 100 | 100 | 99 | 32 | 100 | 100 | 93 | 92
